Test results taken from ChEMBL document CHEMBL6114970, “Development of carbazole-based molecules for inhibition of mutant hSOD1 protein aggregation in Amyotrophic Lateral Sclerosis” (Bioorg Med Chem, 2025).
The source made the active and inactive calls. No cut-off for these calls is given here.

Key:
Homo sapiens [1] = species: Homo sapiens; experiment: Inhibition of TCEP-treated human SOD1 A4V mutant aggregation at 50 uM measured after 24 hrs by thioflavin-T fluorescence assay relative to control
Homo sapiens [2] = species: Homo sapiens; experiment: Inhibition of TCEP-treated human SOD1 G85R mutant aggregation at 50 uM measured after 24 hrs by thioflavin-T fluorescence assay relative to control
Homo sapiens [3] = species: Homo sapiens; experiment: Inhibition of TCEP-treated human SOD1 G93A mutant aggregation at 50 uM measured after 24 hrs by thioflavin-T fluorescence assay relative to control
[4] = (§1) Inhibition of TCEP-treated human SOD1 A4V mutant aggregation measured after 24 hrs by thioflavin-T fluorescence assay
Homo sapiens [5] = species: Homo sapiens; experiment: as §1
[6] = (§2) Inhibition of TCEP-treated human SOD1 G85R mutant aggregation measured after 24 hrs by thioflavin-T fluorescence assay
Homo sapiens [7] = species: Homo sapiens; experiment: as §2
[8] = (§3) Inhibition of TCEP-treated human SOD1 G93A mutant aggregation measured after 24 hrs by thioflavin-T fluorescence assay
Homo sapiens [9] = species: Homo sapiens; experiment: as §3
Homo sapiens [10] = species: Homo sapiens; experiment: Inhibition of TCEP-treated human SOD1 A4V mutant aggregation assessed as formation of few slender fibrils at 50 uM measured after 24 hrs by 1% uranyl acetate staining based transmission electron microscopy
Homo sapiens [11] = species: Homo sapiens; experiment: Inhibition of TCEP-treated human SOD1 G85R mutant aggregation assessed as formation of few slender fibrils at 50 uM measured after 24 hrs by 1% uranyl acetate staining based transmission electron microscopy
Homo sapiens [12] = species: Homo sapiens; experiment: Inhibition of TCEP-treated human SOD1 G93A mutant aggregation assessed as formation of few slender fibrils at 50 uM measured after 24 hrs by 1% uranyl acetate staining based transmission electron microscopy
Homo sapiens [13] = species: Homo sapiens; experiment: Inhibition of TCEP-treated human SOD1 A4V mutant aggregation assessed as size of protein at 50 uM measured after 24 hrs at 37 deg C by dynamic light scattering analysis (reference value: 154.4 nm)
Homo sapiens [14] = species: Homo sapiens; experiment: Inhibition of TCEP-treated human SOD1 G85R mutant aggregation assessed as size of protein at 50 uM measured after 24 hrs at 37 deg C by dynamic light scattering analysis (reference value: 151.1 nm)
Homo sapiens [15] = species: Homo sapiens; experiment: Inhibition of TCEP-treated human SOD1 G93A mutant aggregation assessed as size of protein at 50 uM measured after 24 hrs at 37 deg C by dynamic light scattering analysis (reference value: 84.38 nm)
N2a [16] = experiment: Cytotoxicity against mouse Neuro2a cells over expressing hSOD1 G85R mutant assessed as reduction in cell viability up to 10 uM measured after 48 hrs by MTT assay; type: toxicity, cell-based
N2a [17] = experiment: Cytotoxicity against mouse Neuro2a cells over expressing hSOD1 G85R mutant assessed as reduction in cell viability at 25 uM measured after 48 hrs by MTT assay; type: toxicity, cell-based
N2a [18] = experiment: Protection against MG132-induced SOD1 aggregation-associated cytotoxicity in mouse Neuro2a cells over expressing hSOD1 G85R mutant assessed as increase in cell viability at 1 uM preincubated for 24 hrs followed by MG132 addition and measured after 24 hrs by MTT assay; type: functional, cell-based; conditions: time 48.0 hrs
N2a [19] = experiment: Protection against MG132-induced SOD1 aggregation-associated cytotoxicity in mouse Neuro2a cells over expressing hSOD1 G85R mutant assessed as cell viability at 5 to 10 uM preincubated for 24 hrs followed by MG132 addition and measured after 24 hrs by MTT assay (reference value: 45%); type: functional; conditions: dose 5-10 µM, time 48 hrs
N2a [20] = experiment: Protection against MG132-induced SOD1 aggregation-associated cytotoxicity in mouse Neuro2a cells over expressing hSOD1 G85R mutant assessed as restoration of cell viability by phase contrast microscopy; type: functional, cell-based
N2a [21] = experiment: Protection against MG132-induced SOD1 aggregation-associated cytotoxicity in mouse Neuro2a cells over expressing hSOD1 G85R mutant assessed as restoration of normal morphology by phase contrast microscopy; type: functional, cell-based
N2a [22] = experiment: (§4) Protection against MG132-induced SOD1 aggregation-associated apoptosis in mouse Neuro2a cells over expressing hSOD1 G85R mutant assessed as early apoptotic cells preincubated for 24 hrs followed by MG132 addition and measured after 24 hrs by Annexin V-APC/propidium iodide staining based flow cytometry (reference value: 1.41 %); type: functional; conditions: time 48 hrs
N2a [23] = experiment: as §4, with “late” for “early”, “20.93 to 23.01” for “1.41”; type: functional; conditions: time 48 hrs
N2a [24] = experiment: as §4, with “necrotic” for “early apoptotic”, “2.23” for “1.41”; type: functional; conditions: time 48 hrs
N2a [25] = experiment: Protection against MG132-induced SOD1 aggregation-associated apoptosis in mouse Neuro2a cells over expressing hSOD1 G85R mutant assessed as upregulation of Bcl-2 expression preincubated for 24 hrs followed by MG132 addition and measured after 24 hrs by Western blot analysis; type: functional, cell-based; conditions: time 48.0 hrs
N2a [26] = experiment: Protection against MG132-induced SOD1 aggregation-associated apoptosis in mouse Neuro2a cells over expressing hSOD1 G85R mutant assessed as upregulation of Xiap expression preincubated for 24 hrs followed by MG132 addition and measured after 24 hrs by Western blot analysis; type: functional, cell-based; conditions: time 48.0 hrs
N2a [27] = experiment: Protection against MG132-induced SOD1 aggregation-associated oxidative stress in mouse Neuro2a cells over expressing hSOD1 G85R mutant assessed as reduction in ROS level at 10 uM preincubated for 24 hrs followed by MG132 addition and measured after 24 hrs by H2DCFDA dye based flow cytometry; type: functional, cell-based; conditions: time 48.0 hrs

Work on `CCn1c2ccccc2c2cc(NC(=O)NNC(=O)Nc3ccc(OC)cc3)ccc21` yielded an inhibition (Homo sapiens [1]) of 40.6%, an inhibition (Homo sapiens [2]) of 38.2% and an inhibition (Homo sapiens [3]) of 61.8%.
Work on `CCn1c2ccccc2c2cc(NC(=O)NNC(=S)Nc3ccc([N+](=O)[O-])cc3)ccc21` yielded an inhibition (Homo sapiens [1]) of 60%, an inhibition (Homo sapiens [2]) of 64.4% and an inhibition (Homo sapiens [3]) of 72.6%.
For `Nc1nc2ccc(OC(F)(F)F)cc2s1`, the inhibition (Homo sapiens [1]) was 9.88%, the inhibition (Homo sapiens [2]) was “inactive” and the inhibition (Homo sapiens [3]) was “inactive”.
`CCn1c2ccccc2c2cc(NC(=O)NNC(=S)Nc3ccc(Cl)cc3)ccc21` showed an inhibition (Homo sapiens [1]) of 61.1%, an inhibition (Homo sapiens [2]) of 58.3% and an inhibition (Homo sapiens [3]) of 76.4%.
`CCn1c2ccccc2c2cc(NC(=O)NNC(=O)Nc3ccc([N+](=O)[O-])cc3)ccc21` showed an inhibition (Homo sapiens [1]) of 55.3%, an inhibition (Homo sapiens [2]) of 43.1% and an inhibition (Homo sapiens [3]) of 48.2%.
With `CCn1c2ccccc2c2cc(NC(=O)NNC(=S)NCc3ccccc3)ccc21` the inhibition (Homo sapiens [1]) was 54.2%, the inhibition (Homo sapiens [2]) was 56.4% and the inhibition (Homo sapiens [3]) was 69.8%.
With `CCn1c2ccccc2c2cc(NC(=O)NNC(=S)Nc3ccc(F)cc3)ccc21` the inhibition (Homo sapiens [1]) was 76.2%, the inhibition (Homo sapiens [2]) was 76.8% and the inhibition (Homo sapiens [3]) was 80.7%. The IC50 [4] was 28.1 µM, the inhibition (Homo sapiens [5]) was “Dose-dependent-effect” and the IC50 [6] was 23.4 µM. For the same molecule, the inhibition (Homo sapiens [7]) was “Dose-dependent-effect”, the IC50 [8] was 29.1 µM and the inhibition (Homo sapiens [9]) was “Dose-dependent-effect”. The inhibition (Homo sapiens [10]) was “Active; Displayed Better Reduction In Aggregate Formation Than Curcumin”, the inhibition (Homo sapiens [11]) was “Active; Displayed Better Reduction In Aggregate Formation Than Curcumin” and the inhibition (Homo sapiens [12]) was “Active; Displayed Better Reduction In Aggregate Formation Than Curcumin”. The Activity (Homo sapiens [13]) was 27.7 nm, the Activity (Homo sapiens [14]) was 26.4 nm and the Activity (Homo sapiens [15]) was 21.7 nm. The Activity (N2a [16]) was “Non-toxic”, the Activity (N2a [17]) was “Toxic” and the Activity (N2a [18]) was “inactive”. For the same molecule, the Activity (N2a [19]) was 60%, the Activity (N2a [20]) was “Active” and the Activity (N2a [21]) was “Active”. It also gave an Activity (N2a [22]) of 1.19%, an Activity (N2a [23]) of 5.52% and an Activity (N2a [24]) of 2.13%. The Activity (N2a [25]) was “Active”, the Activity (N2a [26]) was “Active” and the Activity (N2a [27]) was “Active; Showed Better Reduction Compared To Curcumin”.
Work on `CCn1c2ccccc2c2cc(NC(=O)NNC(=O)Nc3ccc(Cl)cc3)ccc21` yielded an inhibition (Homo sapiens [1]) of 59.3%, an inhibition (Homo sapiens [2]) of 63.3% and an inhibition (Homo sapiens [3]) of 33.9%.
For `COc1cc(/C=C/C(=O)CC(=O)/C=C/c2ccc(O)c(OC)c2)ccc1O` [CURCUMIN], the inhibition (Homo sapiens [1]) was 58.7%, the inhibition (Homo sapiens [2]) was 42.8% and the IC50 [4] was 40.9 µM. The inhibition (Homo sapiens [5]) was “Dose-dependent-effect”, the IC50 [6] was 64.1 µM and the inhibition (Homo sapiens [7]) was “Dose-dependent-effect”. For the same molecule, the IC50 [8] was 32.3 µM, the inhibition (Homo sapiens [9]) was “Dose-dependent-effect” and the inhibition (Homo sapiens [10]) was “Active”. For the same molecule, the inhibition (Homo sapiens [11]) was “Active”, the inhibition (Homo sapiens [12]) was “Active” and the Activity (Homo sapiens [13]) was 52.1 nm. For the same molecule, the Activity (Homo sapiens [14]) was 40.2 nm, the Activity (Homo sapiens [15]) was 31.7 nm and the Activity (N2a [16]) was “Non-toxic”. For the same molecule, the Activity (N2a [17]) was “Toxic”, the Activity (N2a [18]) was “inactive” and the Activity (N2a [19]) was 60%. For the same molecule, the Activity (N2a [20]) was “Active”, the Activity (N2a [21]) was “Active” and the Activity (N2a [22]) was 0.97%. For the same molecule, the Activity (N2a [23]) was 8.19%, the Activity (N2a [24]) was 2.58% and the Activity (N2a [25]) was “Active”. For the same molecule, the Activity (N2a [26]) was “Active” and the Activity (N2a [27]) was “Active; Significant Effect Observed”.
`CCn1c2ccccc2c2cc(NC(=O)NNC(=O)Nc3ccc(OC(F)(F)F)cc3)ccc21` showed an inhibition (Homo sapiens [1]) of 47.1%, an inhibition (Homo sapiens [2]) of 63.8% and an inhibition (Homo sapiens [3]) of 73.8%.
In the case of `CCn1c2ccccc2c2cc(NC(=O)NNC(=S)Nc3ccc(OC)cc3)ccc21`, the inhibition (Homo sapiens [1]) is reported as 58.8%, the inhibition (Homo sapiens [2]) is reported as 70.6% and the inhibition (Homo sapiens [3]) is reported as 72.5%.
For `CCn1c2ccccc2c2cc(NC(=O)NNC(=O)NCc3ccccc3)ccc21`, the inhibition (Homo sapiens [1]) was 31.9%, the inhibition (Homo sapiens [2]) was 70.7% and the inhibition (Homo sapiens [3]) was 25.1%.
In the case of `CCn1c2ccccc2c2cc(NC(=O)NNC(=S)Nc3ccccc3)ccc21`, the inhibition (Homo sapiens [1]) is reported as 71.3%, the inhibition (Homo sapiens [2]) is reported as 74.8% and the inhibition (Homo sapiens [3]) is reported as 88.3%. The IC50 [4] was 32.4 µM, the inhibition (Homo sapiens [5]) was “Dose-dependent-effect” and the IC50 [6] was 31.3 µM. For the same molecule, the inhibition (Homo sapiens [7]) was “Dose-dependent-effect”, the IC50 [8] was 26 µM and the inhibition (Homo sapiens [9]) was “Dose-dependent-effect”. The inhibition (Homo sapiens [10]) was “Active; Displayed Better Reduction In Aggregate Formation Than Curcumin”, the inhibition (Homo sapiens [11]) was “Active; Displayed Better Reduction In Aggregate Formation Than Curcumin” and the inhibition (Homo sapiens [12]) was “Active; Displayed Better Reduction In Aggregate Formation Than Curcumin”. It also gave an Activity (Homo sapiens [13]) of 44.6 nm, an Activity (Homo sapiens [14]) of 36.3 nm and an Activity (Homo sapiens [15]) of 25.2 nm. For the same molecule, the Activity (N2a [16]) was “Non-toxic”, the Activity (N2a [17]) was “Toxic” and the Activity (N2a [18]) was “inactive”. For the same molecule, the Activity (N2a [19]) was 60%, the Activity (N2a [20]) was “Active” and the Activity (N2a [21]) was “Active”. It also gave an Activity (N2a [22]) of 1.04%, an Activity (N2a [23]) of 8.26% and an Activity (N2a [24]) of 2.64%. The Activity (N2a [25]) was “Active”, the Activity (N2a [26]) was “Active” and the Activity (N2a [27]) was “Active; Significant Effect Observed”.
In the case of `CCn1c2ccccc2c2cc(NC(=O)NNC(=O)Nc3ccc(F)cc3)ccc21`, the inhibition (Homo sapiens [1]) is reported as 46.1%, the inhibition (Homo sapiens [2]) is reported as 43.4% and the inhibition (Homo sapiens [3]) is reported as 71.9%.
Molecule `CCn1c2ccccc2c2cc(NC(=O)NNC(=O)Nc3ccccc3)ccc21` has an inhibition (Homo sapiens [1]) of 46.9%, an inhibition (Homo sapiens [2]) of 65.9% and an inhibition (Homo sapiens [3]) of 63.4%.
`CCn1c2ccccc2c2cc(NC(=O)NNC(=O)NCCc3ccccc3)ccc21` showed an inhibition (Homo sapiens [1]) of 62.8%, an inhibition (Homo sapiens [2]) of 70% and an inhibition (Homo sapiens [3]) of 44.5%.
`CCn1c2ccccc2c2cc(NC(=O)NNC(=S)Nc3ccc(OC(F)(F)F)cc3)ccc21` gave an inhibition (Homo sapiens [1]) of 69.7%, an inhibition (Homo sapiens [2]) of 63.2% and an inhibition (Homo sapiens [3]) of 72.3%.
For `CCn1c2ccccc2c2cc(NC(=O)NNC(=S)NCCc3ccccc3)ccc21`, the inhibition (Homo sapiens [1]) was 68.5%, the inhibition (Homo sapiens [2]) was 66.1% and the inhibition (Homo sapiens [3]) was 65.4%.
